Measurements taken from US20240269143A1, “COMBINATION THERAPY COMPRISING A MAT2A INHIBITOR AND TYPE I PRMT INHIBITOR” (IDEAYA BIOSCIENCES, INC., priority 2021, published 2024).

How the values were obtained:
BxPC-3 tumors = assay: Anti-tumor efficacy in pancreatic xenograft BxPC-3; assay type: in vivo, mouse; settings: Day 28
Protocol: The BxPC-3 tumor cell line was maintained in vitro as a monolayer culture in RPMI 1640 medium supplemented with 10% fetal bovine serum at 37° C. in an atmosphere of 5% CO2 in air. The tumor cells were routinely sub-cultured, not to exceed 4-5 passages. The cells growing in an exponential growth phase were harvested and counted for tumor inoculation. Each mouse was inoculated subcutaneously on the right flank with 5 million BxPC-3 tumor cells in 0.1 mL RPMI 1640 and Matrigel mixture (1:1 ratio) for tumor development.
Tumor Volume (TV) was calculated using the following formula: TV (mm^3)=(width×width×length)/2. No dose holidays were provided for during the study and all mice were euthanized following the final dose on Day 28. Tumor growth inhibition (TGI) was calculated by [(TV controlfinal−TV treatedfinal)/(TV controlfinal−TV controlinitial)×100]. TV was analyzed for statistical significance using GraphPad Prism version 9.1.0. Repeated Measures 2-Way ANOVA with Tukey's Multiple Comparisons was utilized, and P-values were presented from the final tumor measurement and were considered statistically significant if less than 0.05. The treatment started when the mean tumor volume reached about 197 mm^3. Mice were then randomly assigned to respective groups so that the mean starting tumor volume was the same among groups. Mice were dosed orally, once per day, with Vehicle, Compound A at 10 mg/kg, Compound B at 9.375 or 18.75 mg/kg, or Compound A at 10 mg/kg and Compound B at 9.375 mg/kg, or Compound A at 10 mg/kg and Compound B at 18.75 mg/kg. The Doses were staggered with Compound A given first and Compound B administrated 2 hours later. Likewise, the Vehicle B (for Compound B, Saline) was administrated to animals 2 hours later than the Vehicle A (for Compound A, 0.5% 400 cps methylcellulose with 0.5% Tween-80 in sterile water).

[1] = test system: HCT-116 MTAP-deleted tumors; assay: Anti-tumor efficacy in HCT-116 MTAP-deleted mouse xenograft; assay type: in vivo; settings: Day fourteen
Protocol: (§1) The effect of Compound A and Compound B as single-agent anti-tumor agents and in combination was assessed in the HCT-116 human colon tumor cell line, MTAP isogenic pair (MTAP proficient (WT) or MTAP-deleted). Cells were expanded in DMEM/F12 GlutaMAX (Fisher Scientific, Catalog Number 10-565-018) with 10% fetal bovine serum. These cells were free of mycoplasma and authenticated as HCT-116 by STR profiling. Two and a half million cells in log growth phase were resuspended in Hanks Balanced Salt Solution containing 50% Matrigel and implanted subcutaneously into the flank of each recipient female CB17/lcr-Prkd^scid/lcrlcoCrl mouse. Mice were housed in microisolator cages with corn cob bedding with additional enrichment consisting of sterile nesting material (Innovive) and Bio-huts (Bio-Serv). Water (Innovive) and diet (Teklad Global 19% Protein Extruded Diet 2919, Irradiated) were provided ad libitum. The environment was maintained on a 12-hour light cycle at approximately 68-72° F. and 40-60% relative humidity.
(§2) Tumor Volume (TV) was calculated using the following formula: TV (mm^3)=(width×width×length)/2. No dose holidays were provided for during the study and all mice were euthanized following the final dose on Day fourteen. Tumor growth inhibition (TGI) was calculated by [(TV controlfinal−TV treatedfinal)/(TV controlfinal−TV controlinitial)×100]. TV was analyzed for statistical significance utilizing GraphPad Prism version 9.1.0. Repeated Measures 2-Way ANOVA with Tukey's Multiple Comparisons was utilized, and P-values were presented from the final tumor measurement and were considered statistically significant if less than 0.05.
(§3) Mean tumor volume at dosing start was approximately 128-145 mm^3, with seven mice randomized to each treatment group. The study design was identical for both models, with the study consisting of six treatment groups. Mice were dosed orally, once per day, with Vehicle, Compound A at 5 mg/kg, Compound B at 9.375 or 18.75 mg/kg, or Compound A at 5 mg/kg and Compound B at 9.375 mg/kg, or Compound A at 5 mg/kg and Compound B at 18.75 mg/kg. The doses were staggered with Compound A given first and Compound B administered 2 hours later. Likewise, the Vehicle B (for Compound B, Saline) was administered to animals 2 hours later than the Vehicle A (for Compound A, 0.5% 400 cps methylcellulose with 0.5% Tween-80 in sterile water).

HCT-116 MTAP WT tumors = assay: Anti-tumor efficacy in HCT-116 MTAP WT mouse xenograft; assay type: in vivo; settings: Day fourteen
Protocol: as §1, §2, §3

[2] = test system: KP4 pancreatic cancer cell line; assay: 5-day proliferation screening, combination synergy (HSA, Loewe, Bliss); assay type: cell-based; settings: HSA and Loewe models, single agent activity of Compound B
Protocol: (§4) A 4-day proliferation screening was done in colorectal cancer lines HCT116 and HCT116 MTAP−/− (CRISPR Knock-out), and a 5-day proliferation screening was performed in pancreatic cancer cell lines BxPC3, KP4 and lung cancer line, NCI-H838. The nuclei were fluorescent tagged for all the cell lines. Combinations included a 5-fold titration from 10 uM for MAT2Ai (Compound A) and 5-fold titration from 20 uM for Type1 PRMTi (Compound B). Cells were plated at a seeding density 1000 cells/well in a 96-well format 24h before treatment and treated the following day with an 8×8 double matrix titration (five-fold dilution series) of Compound A (MAT2Ai) and Compound B (Type I PRMTi). Triplicates were run for each data point. Nuclear count was measured at the end point using the IncuCyte S3 Live-Cell Analysis System. Average fluorescence of cells treated with DMSO was set to 100% and the % viable cells were calculated accordingly. Dose response curves for single drug activity and drug-drug synergy for combinations were generated using Combenefit software. Synergy was evaluated using HSA, Loewe, and Bliss models.

[3] = test system: NCI-H838 lung cancer line; assay: as above; assay type: cell-based; settings: HSA and Loewe models, single agent activity of Compound B
Protocol: as §4

[4] = Compound A 10 mg/kg orally once per day
[5] = Compound A 5 mg/kg orally once per day
[6] = Compound B 9.375 mg/kg orally once per day
[7] = Compound B 18.75 mg/kg orally once per day

| SMILES | Final TV (mean) (BxPC-3 tumors; [4]) [mm^3] | TGI (tumor growth inhibition) (BxPC-3 tumors; [4]) [%] | Final TV (mean) [1, 5] [mm^3] | TGI (tumor growth inhibition) [1, 5] [%] | Final TV (mean) (HCT-116 MTAP WT tumors; [5]) [mm^3] | TGI (tumor growth inhibition) (HCT-116 MTAP WT tumors; [5]) [%] | Final TV (mean) (BxPC-3 tumors; [6]) [mm^3] | TGI (tumor growth inhibition) (BxPC-3 tumors; [6]) [%] | Final TV (mean) (BxPC-3 tumors; [7]) [mm^3] | TGI (tumor growth inhibition) (BxPC-3 tumors; [7]) [%] | concentration of Compound B above which modest cytotoxicity observed [2] | concentration of Compound B above which modest cytotoxicity observed [3] | Final TV (mean) [1, 6] [mm^3] | TGI (tumor growth inhibition) [1, 6] [%] | Final TV (mean) [1, 7] [mm^3] | TGI (tumor growth inhibition) [1, 7] [%] | Final TV (mean) (HCT-116 MTAP WT tumors; [6]) [mm^3] | TGI (tumor growth inhibition) (HCT-116 MTAP WT tumors; [6]) [%] | Final TV (mean) (HCT-116 MTAP WT tumors; [7]) [mm^3] | TGI (tumor growth inhibition) (HCT-116 MTAP WT tumors; [7]) [%] |
| --- | --- | --- | --- | --- | --- | --- | --- | --- | --- | --- | --- | --- | --- | --- | --- | --- | --- | --- | --- | --- |
| Nc1nc(=O)n(-c2ccccc2Cl)c2nc(C(F)(F)F)ccc12 [Compound A] | 686 | 37 | 232 | 68 | 539 | 56 | – | – | – | – | – | – | – | – | – | – | – | – | – | – |
| CCOCC1(COCC)CCC(c2n[nH]cc2CN(C)CCNC)CC1 [Compound B] | – | – | – | – | – | – | 638 | 44 | 415 | 72 | above 0.8 uM | above 0.16 uM | 441 | 4 | 357 | 30 | 928 | 13 | 907 | 16 |
